Active and inactive are the calls of the source.
Columns and labels:
[1] = tested on: HEK293; assay: inhibitors of LMP1-driven NF-kB reporter, dose response, cell-based, HEK293, luciferase, cherry-pick (AID 588343); format: functional; details: Homo sapiens
[2] = cytotoxicity in HEK-293T cells, dose response, cytotoxicity control for BCR NF-kB inhibitor project, luminescence, B-cell screen hits (AID 489021); format: functional, cell-based;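 note: HEK-293T cells carrying an NF-kB luciferase reporter; cells exposed to compound for about 14 hours before viability readout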
[3] = molecular target: Peroxisome proliferator-activated receptor gamma/Nuclear receptor coactivator 3 (Homo sapiens, UniProt P37231); assay: (§1) TR-FRET dose response biochemical High Throughput Screening assay for agonists of the steroid receptor coactivator 3 (SRC-3) recruitment by the peroxisome proliferator-activated receptor gamma (PPAR gamma): non-selective agonists. [Related pubchem assays: 1301 (Confirmation screen.), 1048 (Primary screen.)]; format: functional
Chain of Peroxisome proliferator-activated receptor gamma/Nuclear receptor coactivator 3 (P37231 whole entry): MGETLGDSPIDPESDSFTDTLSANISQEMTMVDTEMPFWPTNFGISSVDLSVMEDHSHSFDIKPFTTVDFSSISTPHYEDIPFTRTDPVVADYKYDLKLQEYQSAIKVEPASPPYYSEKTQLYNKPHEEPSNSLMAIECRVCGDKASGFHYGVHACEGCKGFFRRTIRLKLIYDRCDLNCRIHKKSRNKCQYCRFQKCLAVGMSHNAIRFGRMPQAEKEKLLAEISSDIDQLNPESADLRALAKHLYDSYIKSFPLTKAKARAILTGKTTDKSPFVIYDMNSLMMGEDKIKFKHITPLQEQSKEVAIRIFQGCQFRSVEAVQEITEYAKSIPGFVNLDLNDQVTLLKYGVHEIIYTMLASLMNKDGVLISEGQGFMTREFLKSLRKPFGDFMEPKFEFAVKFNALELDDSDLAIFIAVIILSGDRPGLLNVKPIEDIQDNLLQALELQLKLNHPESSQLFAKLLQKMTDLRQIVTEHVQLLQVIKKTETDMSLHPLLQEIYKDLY
Chain of Peroxisome proliferator-activated receptor gamma/Nuclear receptor coactivator 3 (Q9Y6Q9 whole entry, further chain): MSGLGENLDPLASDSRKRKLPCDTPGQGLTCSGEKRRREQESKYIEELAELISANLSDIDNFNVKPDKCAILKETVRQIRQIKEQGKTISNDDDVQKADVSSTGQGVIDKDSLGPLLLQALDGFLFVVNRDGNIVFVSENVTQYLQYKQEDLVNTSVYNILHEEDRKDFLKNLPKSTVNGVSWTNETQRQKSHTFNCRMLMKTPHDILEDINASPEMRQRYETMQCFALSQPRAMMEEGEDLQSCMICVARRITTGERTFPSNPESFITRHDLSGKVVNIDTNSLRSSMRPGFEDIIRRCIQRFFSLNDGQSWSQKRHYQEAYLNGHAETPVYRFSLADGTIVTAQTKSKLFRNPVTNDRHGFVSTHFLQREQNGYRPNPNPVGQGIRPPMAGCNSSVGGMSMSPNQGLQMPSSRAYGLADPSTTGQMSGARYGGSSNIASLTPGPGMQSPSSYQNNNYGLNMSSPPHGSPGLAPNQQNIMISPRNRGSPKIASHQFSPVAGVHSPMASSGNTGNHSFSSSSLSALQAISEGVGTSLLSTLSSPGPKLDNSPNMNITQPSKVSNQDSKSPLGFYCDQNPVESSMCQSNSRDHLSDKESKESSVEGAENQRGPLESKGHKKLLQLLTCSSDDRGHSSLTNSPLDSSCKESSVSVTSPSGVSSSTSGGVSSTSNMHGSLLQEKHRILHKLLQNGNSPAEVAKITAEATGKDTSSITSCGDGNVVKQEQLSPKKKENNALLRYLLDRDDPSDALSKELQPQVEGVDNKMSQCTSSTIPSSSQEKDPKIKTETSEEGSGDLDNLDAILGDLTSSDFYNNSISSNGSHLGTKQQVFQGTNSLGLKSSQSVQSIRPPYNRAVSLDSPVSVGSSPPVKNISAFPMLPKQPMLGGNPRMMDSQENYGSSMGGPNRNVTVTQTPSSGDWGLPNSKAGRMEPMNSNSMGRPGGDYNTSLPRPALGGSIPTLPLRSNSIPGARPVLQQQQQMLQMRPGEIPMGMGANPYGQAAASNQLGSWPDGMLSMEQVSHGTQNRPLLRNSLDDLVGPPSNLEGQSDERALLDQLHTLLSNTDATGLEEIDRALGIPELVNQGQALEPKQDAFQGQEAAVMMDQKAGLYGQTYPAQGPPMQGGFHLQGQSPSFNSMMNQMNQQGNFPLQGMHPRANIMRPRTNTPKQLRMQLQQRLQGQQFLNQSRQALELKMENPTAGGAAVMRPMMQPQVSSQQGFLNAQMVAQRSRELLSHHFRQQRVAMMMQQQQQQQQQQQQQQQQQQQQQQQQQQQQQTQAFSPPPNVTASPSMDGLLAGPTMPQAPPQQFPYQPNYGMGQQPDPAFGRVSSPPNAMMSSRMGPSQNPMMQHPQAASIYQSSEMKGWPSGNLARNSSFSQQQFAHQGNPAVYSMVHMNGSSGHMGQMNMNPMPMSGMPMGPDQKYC

[4] = molecular target: Peroxisome proliferator-activated receptor gamma/Nuclear receptor coactivator 1 (Homo sapiens, UniProt P37231); assay: as §1, with “1 (SRC-1)” for “3 (SRC-3)”, “assays (depositor defined):AID1300, AID1808, AID504735, AID631]” for “assays: 1301 (Confirmation screen.), 1048 (Primary screen.)]”; format: protein assay
[5] = molecular target: Peroxisome proliferator-activated receptor gamma/Nuclear receptor coactivator 2 (Homo sapiens, UniProt P37231); assay: TR-FRET dose response biochemical High Throughput Screening assay for agonists of the steroid receptor coactivator 2 (SRC-2) recruitment by the peroxisome proliferator-activated receptor gamma (PPAR gamma): non-selective agonists. [Related pubchem assays: 1297, 1032 ]; format: functional
Chain of Peroxisome proliferator-activated receptor gamma/Nuclear receptor coactivator 2 (P37231 whole entry): as the sequence (P37231 whole entry) above
Chain of Peroxisome proliferator-activated receptor gamma/Nuclear receptor coactivator 2 (Q15596 whole entry, further chain): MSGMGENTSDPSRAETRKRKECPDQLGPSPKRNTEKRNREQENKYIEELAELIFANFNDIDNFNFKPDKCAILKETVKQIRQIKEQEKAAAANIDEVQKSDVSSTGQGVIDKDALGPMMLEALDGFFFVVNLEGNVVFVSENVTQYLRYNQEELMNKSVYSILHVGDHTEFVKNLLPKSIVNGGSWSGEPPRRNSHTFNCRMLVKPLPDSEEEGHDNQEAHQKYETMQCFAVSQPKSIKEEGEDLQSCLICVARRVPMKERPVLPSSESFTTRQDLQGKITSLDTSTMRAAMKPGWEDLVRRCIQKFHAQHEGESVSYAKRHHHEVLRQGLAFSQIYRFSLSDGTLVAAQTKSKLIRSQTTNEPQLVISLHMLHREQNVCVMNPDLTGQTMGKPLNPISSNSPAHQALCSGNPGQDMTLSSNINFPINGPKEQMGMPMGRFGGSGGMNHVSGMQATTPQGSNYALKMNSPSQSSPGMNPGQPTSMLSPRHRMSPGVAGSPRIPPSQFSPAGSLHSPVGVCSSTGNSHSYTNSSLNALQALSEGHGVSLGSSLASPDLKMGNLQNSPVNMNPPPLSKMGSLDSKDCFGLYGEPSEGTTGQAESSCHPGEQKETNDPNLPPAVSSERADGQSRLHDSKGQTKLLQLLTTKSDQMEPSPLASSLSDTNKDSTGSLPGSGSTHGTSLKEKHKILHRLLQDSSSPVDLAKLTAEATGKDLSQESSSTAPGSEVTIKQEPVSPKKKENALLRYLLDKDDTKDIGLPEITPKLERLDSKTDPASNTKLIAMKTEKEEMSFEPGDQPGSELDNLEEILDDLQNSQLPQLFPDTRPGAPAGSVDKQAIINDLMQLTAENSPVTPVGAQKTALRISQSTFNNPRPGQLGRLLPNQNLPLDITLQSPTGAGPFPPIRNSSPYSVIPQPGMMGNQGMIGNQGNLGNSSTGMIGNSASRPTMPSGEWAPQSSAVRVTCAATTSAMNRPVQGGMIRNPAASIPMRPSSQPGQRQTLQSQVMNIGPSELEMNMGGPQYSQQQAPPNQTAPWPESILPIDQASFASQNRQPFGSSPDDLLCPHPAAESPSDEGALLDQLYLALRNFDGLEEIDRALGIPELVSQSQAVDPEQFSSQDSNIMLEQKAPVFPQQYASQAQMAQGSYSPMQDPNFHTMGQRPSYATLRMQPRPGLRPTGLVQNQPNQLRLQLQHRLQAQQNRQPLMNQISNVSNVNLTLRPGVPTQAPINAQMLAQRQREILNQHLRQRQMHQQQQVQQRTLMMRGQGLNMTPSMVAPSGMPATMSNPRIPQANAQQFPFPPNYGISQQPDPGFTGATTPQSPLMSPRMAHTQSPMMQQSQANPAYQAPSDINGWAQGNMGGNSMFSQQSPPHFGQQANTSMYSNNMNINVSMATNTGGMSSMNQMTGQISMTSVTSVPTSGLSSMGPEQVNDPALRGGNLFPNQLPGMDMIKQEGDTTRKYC

[6] = molecular target: Dual specificity tyrosine-phosphorylation-regulated kinase 1A (Rattus norvegicus, UniProt Q63470); format: biochemical, Homo sapiens
[7] = molecular target: Cytochrome P450 2C19 (Homo sapiens, UniProt P33261); assay: Cytochrome panel assay with activity outcomes. Panel member name: p450-cyp2c19 Compounds with AC50 equal or less than 10 uM are considered active; format: functional; details: read-out: AC50
[8] = molecular target: Cytochrome P450 3A4 (Homo sapiens, UniProt P08684);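 note: CYP3A4 tested as one member of a cytochrome P450 panel screen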
Chain of Cytochrome P450 3A4 (P08684 whole entry): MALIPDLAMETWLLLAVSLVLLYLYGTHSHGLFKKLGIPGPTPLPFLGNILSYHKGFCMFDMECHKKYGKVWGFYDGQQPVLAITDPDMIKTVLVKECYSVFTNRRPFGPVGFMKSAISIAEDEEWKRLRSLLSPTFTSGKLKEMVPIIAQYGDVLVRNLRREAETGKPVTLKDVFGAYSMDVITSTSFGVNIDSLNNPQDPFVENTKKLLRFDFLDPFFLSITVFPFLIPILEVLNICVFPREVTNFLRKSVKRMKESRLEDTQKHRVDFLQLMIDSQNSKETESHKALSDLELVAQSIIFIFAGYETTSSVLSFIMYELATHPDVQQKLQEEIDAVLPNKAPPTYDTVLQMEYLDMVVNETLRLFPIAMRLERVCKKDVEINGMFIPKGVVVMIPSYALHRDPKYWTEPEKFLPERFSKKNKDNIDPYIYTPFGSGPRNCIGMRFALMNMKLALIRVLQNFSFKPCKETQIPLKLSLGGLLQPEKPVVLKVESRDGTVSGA

[9] = molecular target: Cytochrome P450 2C9 (Homo sapiens, UniProt P11712)
Chain of Cytochrome P450 2C9 (P11712 whole entry): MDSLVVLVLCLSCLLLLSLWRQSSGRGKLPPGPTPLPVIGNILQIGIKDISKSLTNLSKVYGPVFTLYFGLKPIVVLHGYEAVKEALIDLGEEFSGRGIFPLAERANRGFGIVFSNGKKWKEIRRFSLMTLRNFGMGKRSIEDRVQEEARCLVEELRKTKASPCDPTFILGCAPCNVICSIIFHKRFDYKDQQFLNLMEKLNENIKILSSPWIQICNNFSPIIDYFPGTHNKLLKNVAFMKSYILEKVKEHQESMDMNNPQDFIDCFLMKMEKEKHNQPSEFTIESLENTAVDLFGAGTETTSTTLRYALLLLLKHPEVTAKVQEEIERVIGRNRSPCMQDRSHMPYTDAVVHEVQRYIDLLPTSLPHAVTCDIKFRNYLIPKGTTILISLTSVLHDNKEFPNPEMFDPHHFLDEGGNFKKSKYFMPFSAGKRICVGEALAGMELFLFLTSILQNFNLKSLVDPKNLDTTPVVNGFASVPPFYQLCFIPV

[10] = molecular target: T1, Cytochrome P450 1A2 (Homo sapiens, UniProt P05177);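 note: PubChem cytochrome P450 panel assay, CYP1A2 panel member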
T1 sequence (P05177 whole entry): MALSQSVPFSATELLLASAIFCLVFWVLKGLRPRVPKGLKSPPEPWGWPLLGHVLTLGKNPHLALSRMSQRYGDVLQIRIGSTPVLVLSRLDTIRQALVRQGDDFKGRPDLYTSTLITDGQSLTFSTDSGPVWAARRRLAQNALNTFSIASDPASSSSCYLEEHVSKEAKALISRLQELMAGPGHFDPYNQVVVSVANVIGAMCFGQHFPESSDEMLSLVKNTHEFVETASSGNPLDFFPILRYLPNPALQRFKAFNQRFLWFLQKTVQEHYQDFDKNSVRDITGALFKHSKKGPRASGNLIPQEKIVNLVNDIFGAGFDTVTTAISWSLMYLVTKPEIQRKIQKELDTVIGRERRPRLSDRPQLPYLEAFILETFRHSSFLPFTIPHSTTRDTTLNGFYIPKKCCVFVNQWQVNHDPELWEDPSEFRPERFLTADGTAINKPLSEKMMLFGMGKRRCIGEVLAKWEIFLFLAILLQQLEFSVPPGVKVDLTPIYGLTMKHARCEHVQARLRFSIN

[11] = molecular target: Troponin, cardiac muscle (Homo sapiens, UniProt P19429+P45379+P63316); assay: Fluorescence-based biochemical high throughput dose response assay for activators of the calcium sensitivity of cardiac Regulated Thin Filaments (RTF). [Related pubchem assays (depositor defined):AID493008, AID493018, AID504382, AID504383]; format: protein-complex assay
[12] = NIH-3T3 fibroblast cytotoxicity, dose response, cytotoxicity control, cell-based, fluorescence, Alamar Blue, secondary assay (AID 2327); format: functional;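 note: NIH-3T3 mouse fibroblasts cultured with fluconazole at 8 µg/mL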
[13] = C. albicans growth with fluconazole, confirmation, fluorescence, retest (AID 2467); format: functional, cell-based
[14] = molecular target: T2, Serine/threonine-protein phosphatase (Candida dubliniensis (strain CD36 / CBS 7987 / NCPF 3949 / NRRLY-17841) (Yeast), UniProt B9W6M3); assay: calcineurin pathway inhibitors in yeast reporter, dose response, S. cerevisiae, CDRE-lacZ, luminescence, secondary (AID 2388); format: functional, cell-based;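 note: yeast reporter cells carrying a calcineurin-responsive lacZ construct stimulated with calcium chloride; luminescent beta-galactosidase reporter signal in whole cells rather than isolated phosphatase activity; potency for inhibition where a drop in reporter signal means calcineurin blockade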
T2 sequence (B9W6M3 whole entry): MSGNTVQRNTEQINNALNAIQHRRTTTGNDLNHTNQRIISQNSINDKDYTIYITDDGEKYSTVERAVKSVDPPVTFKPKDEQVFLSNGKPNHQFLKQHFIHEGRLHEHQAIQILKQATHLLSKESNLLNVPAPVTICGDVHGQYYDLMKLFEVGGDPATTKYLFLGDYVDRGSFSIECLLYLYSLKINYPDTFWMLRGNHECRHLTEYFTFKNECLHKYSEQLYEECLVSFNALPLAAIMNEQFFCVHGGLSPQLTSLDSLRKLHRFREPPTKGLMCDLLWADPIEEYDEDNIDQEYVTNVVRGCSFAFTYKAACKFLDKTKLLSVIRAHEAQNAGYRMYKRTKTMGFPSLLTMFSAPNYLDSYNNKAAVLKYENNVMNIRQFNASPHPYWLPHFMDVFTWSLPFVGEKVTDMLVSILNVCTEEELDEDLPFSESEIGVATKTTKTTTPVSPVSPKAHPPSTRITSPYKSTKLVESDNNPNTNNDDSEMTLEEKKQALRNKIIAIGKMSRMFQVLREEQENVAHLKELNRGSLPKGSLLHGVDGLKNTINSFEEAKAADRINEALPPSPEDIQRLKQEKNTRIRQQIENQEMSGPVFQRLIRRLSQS

[15] = molecular target: ATP-dependent molecular chaperone HSP82 (Candida albicans (strain WO-1) (Yeast), UniProt C4YTQ8); assay: loss of DOC-induced GRE-beta-galactosidase reporter signal, dose response, Hsp90 inhibitor project, S. cerevisiae, luminescence (AID 2400); format: functional, cell-based;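 note: beta-galactosidase luminescence from glucocorticoid response element reporter as proxy for Hsp90 function; inhibitor potency where signal loss means Hsp90 inhibition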
[16] = molecular target: FAD-linked sulfhydryl oxidase ALR (Homo sapiens, UniProt P55789); assay: inhibitors of human ALR sulfhydryl oxidase, dose response, biochemical, H2O2 detection, luminescence, cherry-pick (AID 493248)
[17] = molecular target: T3, Calpain-2 catalytic subunit (Sus scrofa, UniProt P43367); assay: pig calpain II inhibitor potency, dose response, biochemical, fluorogenic peptide substrate (AID 1420); format: functional
T3 sequence (P43367 whole entry): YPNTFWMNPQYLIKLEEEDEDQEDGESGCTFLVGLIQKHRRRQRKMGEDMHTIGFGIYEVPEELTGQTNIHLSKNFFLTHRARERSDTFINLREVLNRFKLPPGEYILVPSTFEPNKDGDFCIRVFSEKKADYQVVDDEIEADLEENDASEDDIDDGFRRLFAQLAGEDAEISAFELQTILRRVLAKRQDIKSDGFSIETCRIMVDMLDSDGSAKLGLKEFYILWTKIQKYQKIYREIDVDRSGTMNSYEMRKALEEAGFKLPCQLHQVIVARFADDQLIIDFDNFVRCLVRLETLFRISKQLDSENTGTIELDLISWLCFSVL

For `Cc1ccccc1C(=O)c1c[nH]c(C(=O)NCc2ccco2)c1`, the AC50 [1] was 11.2 µM (active).
With `CCn1c(=O)cc(SCC(=O)N2CCN(C)CC2)c2ccccc21` the IC50 [2] was > 80 µM (inactive), the EC50 [3] was > 79.4 µM (not active) and the EC50 [4] was > 79.4 µM (inactive). For the same compound, the EC50 [5] was > 79.4 µM (not active).
For `CCO/C(=C/c1sc2ccc(OC)cc2[n+]1CCCS(=O)(=O)[O-])CC`, the AC50 [6] was 9.02 µM (active).
For `Cn1c(=O)cc(SCC(=O)Nc2cccnc2)c2ccccc21`, the EC50 [3] was > 79.4 µM (not active), the EC50 [4] was > 79.4 µM (inactive) and the EC50 [5] was > 79.4 µM (not active).
In the case of `CN(CCCNC(=O)C1CCN(S(=O)(=O)c2cccc3nsnc23)CC1)Cc1ccccc1`, the AC50 [7] is reported as 39.8 µM (inconclusive), the AC50 [8] is reported as 3.16 µM (inconclusive) and the AC50 [9] is reported as “inconclusive”.
In the case of `CCCN(CCC)CCc1c[nH]c2ccc(C(N)=O)cc12`, the AC50 [10] is reported as 15.8 µM (inconclusive) and the AC50 [9] is reported as “inconclusive”.
In the case of `COCCn1c(C)cc(C(=O)COC(=O)C23CC4CC(CC(O)(C4)C2)C3)c1C`, the AC50 [1] is reported as 7.37 µM (active).
For `CCOc1ccc2ccccc2c1CNCCN1CCOCC1`, the EC50 [11] was > 71.5 µM (inactive).
With `CCOC(=O)c1c(-c2ccccc2Cl)cn2ccccc12` the EC50 [12] was > 160 µM (inactive), the EC50 [13] was 3.75 µM (active) and the EC50 [14] was > 180 µM (inactive). The EC50 [15] was 17.4 µM (active).
With `COc1cc(/C=C2/SC(=O)NC2=O)ccc1Oc1ccc([N+](=O)[O-])cc1[N+](=O)[O-]` the AC50 [16] was 0.156 µM (active), the IC50 [17] was 7.36 µM (not active) and the AC50 [6] was 0.992 µM (active).
